# From US9427482B2, “Agents for clearing biomolecules from circulation” (KONINKLIJKE PHILIPS N.V., priority 2010, dated 2016)
# Columns and labels:
# [1] = Human radiation dosimetry (OLINDA/EXM); details: human model, 73 Kg adult male
# Experimental: (§1) Radiation dosimetry estimates were calculated for a male human model (standard 73 Kg adult) and for a voxelized mouse model by using the mouse biodistribution data (Example 12, Tables 7 and 8) according to the MIRD methodology. Activity concentration in these organs were converted in percent injected dose (% ID) and decay corrected to the time of injection. The % ID for blood, muscle and bone were estimated from the % ID/g of tissue and assuming 6%, 42% and 11% of the body weight. Whenever possible the time activity curves were fitted by a two-phase exponential clearance function. The fitted function was then integrated analytically to yield the organ residence times (Table 9). […] The time activity curve of the tumor was fitted by a mono-exponential uptake function defined as F(t)=a0(1−exp(−a1t)).
# Human radiation dosimetry (Table 10) were calculated using the above measured residence times and the OLINDA/EXM program with the following assumptions: 10% of the blood residence time was assigned to the heart content and 90% was assigned to the remainder of the body; the activity measured in the small and large intestines were assigned to the organ content but the radiation dose was assigned to the organ itself; activity in the large intestine was assigned in equal part to the upper and lower large intestines; activity in the bone was assigned in equal parts to the trabecular and […] bone components. The bladder voiding model in OLINDA/EXM was used. Residence time to the red marrow was calculated as a fraction of blood residence time (τmarrow=0.08 τblood).
# [2] = Mouse radiation dosimetry (voxelized mouse model, EGSNRC)
# Experimental: as §1
# Radiation doses to the mouse organs were evaluated using the MIRD methodology where the S-factors in the mouse were calculated using a voxelized model of a mouse and the electron transport program EGSNRC to calculate energy deposition. The MOBY mouse phantom of Segars et al. was voxelized on a 0.2 mm grid and further modified to include the following organs: intestine wall and content, stomach wall and content, bladder wall and content and a 20 μl gall bladder. Finally, a 0.53 g tumor was added to the left side of the neck of the animal. Twenty-seven independent simulations, each for 10 millions decays, were performed with the program EGSNRC to calculate the energy deposition in each target organ for each source organ. The simulation included all decay particles from ^177Lu as listed in www.nndc.bnl.gov/MIRD tables. These S-factors were then used with the organ residence times measured above.
compound,measurement,setting,value
O=C([O-])CN1CCN(CC(=O)[O-])CCN(CC(=O)NCCOCCOCCOCCOCCOCCOCCOCCOCCOCCOCCOCCNC(=O)CCCC(=O)Nc2ccc(-c3nnc(-c4ccccn4)nn3)nc2)CCN(CC(=O)[O-])CC1.[177Lu+3] [^177Lu-tetrazine],Effective Dose,[1],0.0195 mSv/MBq
same,Organ Radiation dose Adrenals,[1],0.00162 mGy/MBq
same,Organ Radiation dose Bladder Wall,[1],0.104 mGy/MBq
same,Organ Radiation dose Brain,[1],0.000146 mGy/MBq
same,Organ Radiation dose Breasts,[1],0.0013 mGy/MBq
same,Organ Radiation dose Gall Bladder Wall,[1],0.0018 mGy/MBq
same,Organ Radiation dose Heart Wall,[1],0.000537 mGy/MBq
same,Organ Radiation dose Kidneys,[1],0.0425 mGy/MBq
same,Organ Radiation dose Liver,[1],0.0142 mGy/MBq
same,Organ Radiation dose Lower Large Int.,[1],0.0363 mGy/MBq
same,Organ Radiation dose Lungs,[1],0.00288 mGy/MBq
same,Organ Radiation dose Muscle,[1],0.000861 mGy/MBq
same,Organ Radiation dose Osteogenic cells,[1],0.00172 mGy/MBq
same,Organ Radiation dose Ovaries,[1],0.0341 mGy/MBq
same,Organ Radiation dose Pancreas,[1],0.00164 mGy/MBq
same,Organ Radiation dose Red marrow,[1],0.00302 mGy/MBq
same,Organ Radiation dose Skin,[1],0.0029 mGy/MBq
same,Organ Radiation dose Small Intestines,[1],0.0101 mGy/MBq
same,Organ Radiation dose Spleen,[1],0.0112 mGy/MBq
same,Organ Radiation dose Stomach Wall,[1],0.00599 mGy/MBq
same,Organ Radiation dose Testes,[1],0.00151 mGy/MBq
same,Organ Radiation dose Thymus,[1],0.00134 mGy/MBq
same,Organ Radiation dose Thyroid,[1],0.00132 mGy/MBq
same,Organ Radiation dose Total Body,[1],0.00287 mGy/MBq
same,Organ Radiation dose Upper large Int.,[1],0.0231 mGy/MBq
same,Organ Radiation dose Uterus,[1],0.0293 mGy/MBq
same,Effective Dose,[2],15.6 mSv/MBq
same,Organ Radiation dose Bladder Wall,[2],168 mGy/MBq
same,Organ Radiation dose Brain,[2],1 mGy/MBq
same,Organ Radiation dose Cranium,[2],13 mGy/MBq
same,Organ Radiation dose Femur,[2],8 mGy/MBq
same,Organ Radiation dose Gall Bladder,[2],2 mGy/MBq
same,Organ Radiation dose Heart Wall,[2],2 mGy/MBq
same,Organ Radiation dose Intestine Wall,[2],9 mGy/MBq
same,Organ Radiation dose Kidneys,[2],58 mGy/MBq
same,Organ Radiation dose Liver,[2],10 mGy/MBq
same,Organ Radiation dose Lungs,[2],5 mGy/MBq
same,Organ Radiation dose Pancreas,[2],2 mGy/MBq
same,Organ Radiation dose Ribs,[2],8 mGy/MBq
same,Organ Radiation dose Skin,[2],1 mGy/MBq
same,Organ Radiation dose Spine,[2],8 mGy/MBq
same,Organ Radiation dose Spine (marrow),[2],7 mGy/MBq
same,Organ Radiation dose Spleen,[2],15 mGy/MBq
same,Organ Radiation dose Stomach Wall,[2],16 mGy/MBq
same,Organ Radiation dose Testes (ovaries),[2],1 mGy/MBq
same,Organ Radiation dose Thyroid,[2],1 mGy/MBq
same,Organ Radiation dose Trachea,[2],2 mGy/MBq
same,Radiation dose Whole Body,[2],5 mGy/MBq
same,Radiation dose Tumor,[2]; 0.53 g tumor,479 mGy/MBq
